Reference: article PMC10893631, “Receptor-based pharmacophore modeling, molecular docking, synthesis and biological evaluation of novel VEGFR-2, FGFR-1, and BRAF multi-kinase inhibitors” (BMC Chemistry, 2024)

Columns and labels:
Experiment in all cases: NCI SRB growth inhibition (single dose 10 µM / five-dose)
Assay type in all cases: cell-based, human
[1] = test system: HOP-92; conditions: Homo sapiens; HOP-92 (Non-small cell lung cancer), 10 µM; read-out: GI%
Outline: (§1)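 Growth inhibition is derived from seven absorbance readings per agent (Tz, C and five Ti). Where a parameter level is not reached or is exceeded, the value is given as greater or less than the highest or lowest concentration tested.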

[2] = test system: CCRF-CEM; conditions: Homo sapiens; for inhibition at 10 µM: CCRF-CEM (Leukemia), read-out: GI%; for GI50: CCRF-CEM, Leukemia, five-dose
Outline: as §1

[3] = test system: MOLT-4; conditions: Homo sapiens; for inhibition at 10 µM: MOLT-4 (Leukemia), read-out: GI%; for GI50: MOLT-4, Leukemia, five-dose
Outline: as §1

[4] = test system: ACHN; conditions: Homo sapiens; for inhibition at 10 µM: ACHN (Renal cancer), read-out: GI%; for GI50: ACHN, Renal cancer, five-dose
Outline: as §1

[5] = test system: SK-MEL-2; conditions: Homo sapiens; for inhibition at 10 µM: SK-MEL-2 (Melanoma), read-out: GI%; for GI50: SK-MEL-2, Melanoma, five-dose
Outline: as §1

[6] = test system: HCC-2998; conditions: Homo sapiens; for inhibition at 10 µM: HCC-2998 (Colon cancer), read-out: GI%; for GI50: HCC-2998, Colon cancer, five-dose
Outline: as §1

[7] = test system: SK-MEL-28; conditions: Homo sapiens; for inhibition at 10 µM: SK-MEL-28 (Melanoma), read-out: GI%; for GI50: SK-MEL-28, Melanoma, five-dose
Outline: as §1

[8] = test system: BT-549; conditions: Homo sapiens; for inhibition at 10 µM: BT-549 (Breast cancer), read-out: GI%; for GI50: BT-549, Breast cancer, five-dose
Outline: as §1

[9] = test system: EKVX; conditions: Homo sapiens; for inhibition at 10 µM: EKVX (Non-small cell lung cancer), read-out: GI%; for GI50: EKVX, Non-small cell lung cancer, five-dose
Outline: as §1

[10] = test system: RXF 393; conditions: Homo sapiens; for inhibition at 10 µM: RXF 393 (Renal cancer), read-out: GI%; for GI50: RXF 393, Renal cancer, five-dose
Outline: as §1

[11] = test system: SR; conditions: Homo sapiens; for inhibition at 10 µM: SR (Leukemia), read-out: GI%; for GI50: SR, Leukemia, five-dose
Outline: as §1

[12] = test system: HT29; conditions: Homo sapiens, HT-29; for inhibition at 10 µM: HT29 (Colon cancer), read-out: GI%; for GI50: HT29, Colon cancer, five-dose
Outline: as §1

[13] = test system: OVCAR-5; conditions: Homo sapiens; for inhibition at 10 µM: OVCAR-5 (Ovarian cancer), read-out: GI%; for GI50: OVCAR-5, Ovarian cancer, five-dose
Outline: as §1

[14] = test system: A549/ATCC; conditions: Homo sapiens; for inhibition at 10 µM: A549/ATCC (Non-small cell lung cancer), read-out: GI%; for GI50: A549/ATCC, Non-small cell lung cancer, five-dose
Outline: as §1

[15] = test system: MDA-MB-231/ATCC; conditions: Homo sapiens; for inhibition at 10 µM: MDA-MB-231/ATCC (Breast cancer), read-out: GI%; for GI50: MDA-MB-231/ATCC, Breast cancer, five-dose
Outline: as §1

[16] = test system: SK-MEL-5; conditions: Homo sapiens; for inhibition at 10 µM: SK-MEL-5 (Melanoma), read-out: GI%; for GI50: SK-MEL-5, Melanoma, five-dose
Outline: as §1

[17] = test system: NCI/ADR-RES; conditions: Homo sapiens; for inhibition at 10 µM: NCI/ADR-RES (Ovarian cancer), read-out: GI%; for GI50: NCI/ADR-RES, Ovarian cancer, five-dose
Outline: as §1

[18] = test system: MALME-3 M; conditions: Homo sapiens; for inhibition at 10 µM: MALME-3 M (Melanoma), read-out: GI%; for GI50: MALME-3 M, Melanoma, five-dose
Outline: as §1

[19] = test system: TK-10; conditions: Homo sapiens; for inhibition at 10 µM: TK-10 (Renal cancer), read-out: GI%; for GI50: TK-10, Renal cancer, five-dose
Outline: as §1

[20] = test system: HS 578 T; conditions: Homo sapiens; for inhibition at 10 µM: HS 578 T (Breast cancer), read-out: GI%; for GI50: HS 578 T, Breast cancer, five-dose
Outline: as §1

[21] = test system: M14; conditions: Homo sapiens; for inhibition at 10 µM: M14 (Melanoma), read-out: GI%; for GI50: M14, Melanoma, five-dose
Outline: as §1

[22] = test system: 786–0; conditions: Homo sapiens; for inhibition at 10 µM: 786–0 (Renal cancer), read-out: GI%; for GI50: 786–0, Renal cancer, five-dose
Outline: as §1

[23] = test system: UACC-257; conditions: Homo sapiens; for inhibition at 10 µM: UACC-257 (Melanoma), read-out: GI%; for GI50: UACC-257, Melanoma, five-dose
Outline: as §1

[24] = test system: NCI-H226; conditions: Homo sapiens; for inhibition at 10 µM: NCI-H226 (Non-small cell lung cancer), read-out: GI%; for GI50: NCI-H226, Non-small cell lung cancer, five-dose
Outline: as §1

[25] = test system: CAKI-1; conditions: Homo sapiens; for inhibition at 10 µM: CAKI-1 (Renal cancer), read-out: GI%; for GI50: CAKI-1, Renal cancer, five-dose
Outline: as §1

[26] = test system: SF-295; conditions: Homo sapiens; for inhibition at 10 µM: SF-295 (CNS cancer), read-out: GI%; for GI50: SF-295, CNS cancer, five-dose
Outline: as §1

COc1ccc(-c2nc3cc(C(=O)NN=Cc4cccc(OC)c4)ccc3[nH]2)cc1 [8j, N'-(3-Methoxybenzylidene)-2-(4-methoxyphenyl)-1H-benzo[d]imidazole-5-carbohydrazide]
inhibition at 10 µM [1]: > 100% | inhibition at 10 µM [2]: 35% | GI50 [2]: 7.91 µM | inhibition at 10 µM [3]: 59.4% | GI50 [3]: 22.6 µM | inhibition at 10 µM [4]: > 100% | GI50 [4]: 4.25 µM | inhibition at 10 µM [5]: 81% | GI50 [5]: 10.6 µM | inhibition at 10 µM [6]: 88.5% | GI50 [6]: 3.52 µM | inhibition at 10 µM [7]: 64.2% | GI50 [7]: 3.93 µM | inhibition at 10 µM [8]: 29.8% | GI50 [8]: 5.47 µM | inhibition at 10 µM [9]: > 100% | GI50 [9]: 2.76 µM | inhibition at 10 µM [10]: > 100% | GI50 [10]: 2.26 µM | inhibition at 10 µM [11]: 92.7% | GI50 [11]: 10.6 µM | inhibition at 10 µM [12]: > 100% | GI50 [12]: 2.8 µM | inhibition at 10 µM [13]: 91.2% | GI50 [13]: 4.69 µM | inhibition at 10 µM [14]: > 100% | GI50 [14]: 3.05 µM | inhibition at 10 µM [15]: > 100% | GI50 [15]: 2.43 µM | inhibition at 10 µM [16]: > 100% | GI50 [16]: 3.45 µM | inhibition at 10 µM [17]: 32% | GI50 [17]: 6.35 µM | inhibition at 10 µM [18]: > 100% | GI50 [18]: 2.45 µM | inhibition at 10 µM [19]: > 100% | GI50 [19]: 12.6 µM | inhibition at 10 µM [20]: > 100% | GI50 [20]: 1.9 µM | inhibition at 10 µM [21]: 70.4% | GI50 [21]: 3.42 µM | inhibition at 10 µM [22]: > 100% | GI50 [22]: 3.84 µM | inhibition at 10 µM [23]: 57.7% | GI50 [23]: 11 µM | inhibition at 10 µM [24]: 98.3% | GI50 [24]: 2.13 µM | inhibition at 10 µM [25]: 85.3% | GI50 [25]: 2.81 µM | inhibition at 10 µM [26]: 167% | GI50 [26]: 2.93 µM

COc1ccc(-c2nc3cc(C(=O)NN=Cc4cccc(OC)c4O)ccc3[nH]2)cc1 [8k, N'-(2-Hydroxy-3-methoxybenzylidene)-2-(4-methoxyphenyl)-1H-benzo[d]imidazole-5-carbohydrazide]
inhibition at 10 µM [1]: 70.4% | inhibition at 10 µM [2]: > 100% | GI50 [2]: 1.05 µM | inhibition at 10 µM [3]: > 100% | GI50 [3]: 3.8 µM | inhibition at 10 µM [4]: 87.7% | GI50 [4]: 4.19 µM | inhibition at 10 µM [5]: 39.1% | GI50 [5]: 6.3 µM | inhibition at 10 µM [6]: > 100% | GI50 [6]: 2.33 µM | inhibition at 10 µM [7]: > 100% | GI50 [7]: 3.32 µM | inhibition at 10 µM [8]: > 100% | GI50 [8]: 2.85 µM | inhibition at 10 µM [9]: 98.1% | GI50 [9]: 2.3 µM | inhibition at 10 µM [10]: > 100% | GI50 [10]: 2.58 µM | inhibition at 10 µM [11]: > 100% | GI50 [11]: 2.06 µM | inhibition at 10 µM [12]: > 100% | GI50 [12]: 3.67 µM | inhibition at 10 µM [13]: 69.5% | GI50 [13]: 7.72 µM | inhibition at 10 µM [14]: 76.7% | GI50 [14]: 9.04 µM | inhibition at 10 µM [15]: 97.7% | GI50 [15]: 2.8 µM | inhibition at 10 µM [16]: > 100% | GI50 [16]: 2.86 µM | inhibition at 10 µM [17]: 28.1% | GI50 [17]: > 100 µM | inhibition at 10 µM [18]: > 100% | GI50 [18]: 1.09 µM | inhibition at 10 µM [19]: 40% | GI50 [19]: > 100 µM | inhibition at 10 µM [20]: 89.3% | GI50 [20]: 2.22 µM | inhibition at 10 µM [21]: 91% | GI50 [21]: 2.81 µM | inhibition at 10 µM [22]: > 100% | GI50 [22]: 3.69 µM | inhibition at 10 µM [23]: > 100% | GI50 [23]: 3.43 µM | inhibition at 10 µM [24]: 82.2% | GI50 [24]: 3.14 µM | inhibition at 10 µM [25]: 84.6% | GI50 [25]: 3.64 µM | inhibition at 10 µM [26]: 96.4% | GI50 [26]: 2.48 µM

COc1ccc(-c2nc3cc(C(=O)NN=Cc4ccc(OC)c(O)c4)ccc3[nH]2)cc1 [8l, N'-(3-Hydroxy-4-methoxybenzylidene)-2-(4-methoxyphenyl)-1H-benzo[d]imidazole-5-carbohydrazide]
inhibition at 10 µM [1]: 17.4% | inhibition at 10 µM [2]: 89.4% | inhibition at 10 µM [3]: 78.6% | inhibition at 10 µM [4]: < 5% | inhibition at 10 µM [5]: 25.8% | inhibition at 10 µM [6]: 15% | inhibition at 10 µM [7]: 52.5% | inhibition at 10 µM [8]: 10.4% | inhibition at 10 µM [9]: 12.9% | inhibition at 10 µM [10]: 37.2% | inhibition at 10 µM [11]: 72.2% | inhibition at 10 µM [12]: > 100% | inhibition at 10 µM [13]: < 5% | inhibition at 10 µM [14]: 5.94% | inhibition at 10 µM [15]: 26.4% | inhibition at 10 µM [16]: 55.3% | inhibition at 10 µM [17]: < 5% | inhibition at 10 µM [18]: 87.6% | inhibition at 10 µM [19]: < 5% | inhibition at 10 µM [20]: 46.2% | inhibition at 10 µM [21]: 63.5% | inhibition at 10 µM [22]: 18.1% | inhibition at 10 µM [23]: 52.9% | inhibition at 10 µM [24]: 24.5% | inhibition at 10 µM [25]: < 5% | inhibition at 10 µM [26]: 51%

COc1ccc(-c2nc3cc(C(=O)NN=Cc4cc(OC)ccc4OC)ccc3[nH]2)cc1 [8m, N'-(2,5-Dimethoxybenzylidene)-2-(4-methoxyphenyl)-1H-benzo[d]imidazole-5-carbohydrazide]
inhibition at 10 µM [1]: < 5% | inhibition at 10 µM [2]: 45.9% | inhibition at 10 µM [3]: 35.8% | inhibition at 10 µM [4]: 8.59% | inhibition at 10 µM [5]: 11.1% | inhibition at 10 µM [6]: < 5% | inhibition at 10 µM [7]: 5.7% | inhibition at 10 µM [8]: 17.2% | inhibition at 10 µM [9]: 10.6% | inhibition at 10 µM [10]: 15.2% | inhibition at 10 µM [11]: 28.5% | inhibition at 10 µM [12]: 25.4% | inhibition at 10 µM [13]: < 5% | inhibition at 10 µM [14]: 13.7% | inhibition at 10 µM [15]: 14.3% | inhibition at 10 µM [16]: 22.3% | inhibition at 10 µM [17]: < 5% | inhibition at 10 µM [18]: 18.3% | inhibition at 10 µM [19]: < 5% | inhibition at 10 µM [20]: < 5% | inhibition at 10 µM [21]: < 5% | inhibition at 10 µM [22]: 29% | inhibition at 10 µM [23]: 14.3% | inhibition at 10 µM [24]: < 5% | inhibition at 10 µM [25]: < 5% | inhibition at 10 µM [26]: 19.9%
